In US11473064B2, “Hybrid alphavirus-SARS-CoV-2 particle and methodology of making and using same” (GEORGE MASON RESEARCH FOUNDATION, INC., priority 2020, dated 2022):

System: Ha-CoV-2(Luc)
Assay: microbe, parasite or virus in culture
Format: cell-based, SARS-CoV-2
Conditions: Severe acute respiratory syndrome coronavirus 2, HEK-293T, read-out: IC50 (inhibition of Ha-CoV-2(Luc) infection)

With CCOC(=O)c1c(CSc2ccccc2)n(C)c2cc(Br)c(O)c(CN(C)C)c12 [Arbidol, Arbidol (Umifenovir)] the IC50 was 16 µM.
